How the values were obtained:
bedstraw = test: Test B pre/postemergence bedstraw; assay type: in vivo, Galium aparine
In short: (§1)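 Herbicidal effect was estimated by eye on a ten-point control scale after plants spent twelve to sixteen days in a greenhouse following soil or foliar treatment. Foliar sprays targeted plants at one to four leaves; all doses were formulated in a non-phytotoxic solvent with surfactant.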

blackgrass = test: Test B pre/postemergence blackgrass; assay type: in vivo, Alopecurus myosuroides
In short: as §1

surinam grass = test: Test B pre/postemergence surinam grass; assay type: in vivo, Brachiaria decumbens
In short: as §1

cocklebur = test: Test B pre/postemergence cocklebur; assay type: in vivo, Xanthium strumarium
In short: as §1

corn = test: Test B pre/postemergence corn; assay type: in vivo, Zea mays
In short: as §1

crabgrass = test: Test B pre/postemergence crabgrass; assay type: in vivo, Digitaria sanguinalis
In short: as §1

giant foxtail = test: Test B pre/postemergence giant foxtail; assay type: in vivo, Setaria faberii
In short: as §1

morningglory = test: Test B pre/postemergence morningglory; assay type: in vivo, Ipomoea hederacea
In short: as §1

pigweed = test: Test B pre/postemergence pigweed; assay type: in vivo, Amaranthus retroflexus
In short: as §1

soybean = test: Test B pre/postemergence soybean; assay type: in vivo, Glycine max
In short: as §1

sugar beet = test: Test B pre/postemergence sugar beet; assay type: in vivo, Beta vulgaris
In short: as §1

wild oat = test: Test B pre/postemergence wild oat; assay type: in vivo, Avena fatua
In short: as §1

purple nutsedge = test: Test B pre/postemergence purple nutsedge; assay type: in vivo, Cyperus rotundus
In short: as §1

rice = test: Test B flood test rice; assay type: in vivo, Oryza sativa
In short: (§2)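 Each value is a visual injury score relative to controls, with 10 meaning complete control and 0 no effect. Evaluation took place twelve to sixteen days after the 2-leaf-stage plants were treated and kept in the greenhouse.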

smallflower flatsedge = test: Test B flood test smallflower flatsedge; assay type: in vivo, Cyperus difformis
In short: as §2

duck salad = test: Test B flood test duck salad; assay type: in vivo, Heteranthera limosa
In short: as §2

[1] = Preemergence, Rate 62 g/ha, scale of 0 to 10 where 0 is no effect and 10 is complete control
[2] = Preemergence, Rate 250 g/ha, scale of 0 to 10 where 0 is no effect and 10 is complete control
[3] = Preemergence, Rate 500 g/ha, scale of 0 to 10 where 0 is no effect and 10 is complete control
[4] = Rate 62 g/ha, Postemergence, scale of 0 to 10 where 0 is no effect and 10 is complete control
[5] = Rate 125 g/ha, Postemergence, scale 0 to 10
[6] = Rate 125 g/ha, Preemergence, scale of 0 to 10 where 0 is no effect and 10 is complete control
[7] = Rate 500 g/ha, Postemergence, scale 0 to 10, 0 no effect, 10 complete control
[8] = Rate 62 g/ha, headed Pre-emergence (flood test species), scale 0 to 10 (0 no effect, 10 complete control)
[9] = Rate 125 g/ha, Pre-emergence, flood test species, scale 0 to 10 where 0 is no effect and 10 is complete control
[10] = Rate 250 g/ha, Pre-emergence, flood-test species, scale 0 to 10, 0 is no effect, 10 is complete control
[11] = Rate 500 g/ha, Pre-emergence, flood test species, scale 0 to 10 (0 no effect, 10 complete control)

Q: With CCCCc1ccc(N(C(=O)n2oc(=O)n(-c3ccccc3C)c2=O)C(C)C)cc1 [Compound 229] as the compound, how does the “Bedstraw plant response rating” value (bedstraw; [1]) read?
A: 0

Q: What about the “Bedstraw plant response rating” value (bedstraw; [2]) of the same compound?
A: 0

Q: And the “Plant response rating, Bedstraw” value (bedstraw; [3])?
A: 0

Q: And the “Bedstraw plant response rating” value (bedstraw; [4])?
A: 0

Q: What about the “Bedstraw plant response rating” value (bedstraw; [5]) of the same compound?
A: 0

Q: And the “Bedstraw plant response rating” value (bedstraw; [6])?
A: 0

Q: What about the “Plant response rating (0 to 10; 0 is no effect, 10 is complete control), Bedstraw” value (bedstraw; Rate 250 g/ha, Postemergence) of the same compound?
A: 0

Q: What about the “Bedstraw plant response rating” value (bedstraw; [7]) of the same compound?
A: 0

Q: And the “Blackgrass plant response rating” value (blackgrass; [1])?
A: 0

Q: What about the “Blackgrass plant response rating” value (blackgrass; [2]) of the same compound?
A: 0

Q: And the “Plant response rating, Blackgrass” value (blackgrass; [3])?
A: 0

Q: And the “Blackgrass plant response rating” value (blackgrass; [4])?
A: 0

Q: And the “Blackgrass plant response rating” value (blackgrass; [5])?
A: 0

Q: And the “Blackgrass plant response rating” value (blackgrass; [6])?
A: 0

Q: What about the “Plant response rating (0 to 10; 0 is no effect, 10 is complete control), Blackgrass” value (blackgrass; Rate 250 g/ha, Postemergence) of the same compound?
A: 0

Q: And the “Blackgrass plant response rating” value (blackgrass; [7])?
A: 0

Q: And the “B. signalgrass plant response rating” value (surinam grass; [1])?
A: 0

Q: And the “B. signalgrass plant response rating” value (surinam grass; Preemergence, Rate 250 g/ha, scale 0 to 10, 0 is no effect, 10 is complete control)?
A: 0

Q: What about the “Plant response rating, B. signalgrass” value (surinam grass; [3]) of the same compound?
A: 0

Q: And the “B. signalgrass plant response rating” value (surinam grass; [4])?
A: 0

Q: And the “B. signalgrass plant response rating” value (surinam grass; Rate 125 g/ha, Postemergence, scale 0 (no effect) to 10 (complete control))?
A: 0

Q: What about the “B. signalgrass plant response rating” value (surinam grass; [6]) of the same compound?
A: 0

Q: And the “Plant response rating (0 to 10; 0 is no effect, 10 is complete control), B. signalgrass” value (surinam grass; Rate 250 g/ha, Postemergence)?
A: 0

Q: And the “B. signalgrass plant response rating” value (surinam grass; [7])?
A: 0

Q: What about the “Cocklebur plant response rating” value (cocklebur; [1]) of the same compound?
A: 0

Q: What about the “Cocklebur plant response rating” value (cocklebur; [2]) of the same compound?
A: 0

Q: And the “Plant response rating, Cocklebur” value (cocklebur; [3])?
A: 0

Q: And the “Cocklebur plant response rating” value (cocklebur; [4])?
A: 0

Q: What about the “Cocklebur plant response rating” value (cocklebur; [5]) of the same compound?
A: 0

Q: What about the “Cocklebur plant response rating” value (cocklebur; [6]) of the same compound?
A: 0

Q: What about the “Plant response rating (0 to 10; 0 is no effect, 10 is complete control), Cocklebur” value (cocklebur; Rate 250 g/ha, Postemergence) of the same compound?
A: 0

Q: What about the “Cocklebur plant response rating” value (cocklebur; [7]) of the same compound?
A: 0

Q: And the “Corn plant response rating” value (corn; [1])?
A: 0

Q: What about the “Corn plant response rating” value (corn; [2]) of the same compound?
A: 0

Q: What about the “Plant response rating, Corn” value (corn; [3]) of the same compound?
A: 0

Q: And the “Corn plant response rating” value (corn; [4])?
A: 0

Q: What about the “Corn plant response rating” value (corn; [5]) of the same compound?
A: 0

Q: What about the “Corn plant response rating” value (corn; [6]) of the same compound?
A: 0

Q: What about the “Plant response rating (0 to 10; 0 is no effect, 10 is complete control), Corn” value (corn; Rate 250 g/ha, Postemergence) of the same compound?
A: 0

Q: And the “Corn plant response rating” value (corn; [7])?
A: 0

Q: What about the “Crabgrass plant response rating” value (crabgrass; [1]) of the same compound?
A: 0

Q: And the “Crabgrass plant response rating” value (crabgrass; [2])?
A: 0

Q: And the “Plant response rating, Crabgrass” value (crabgrass; [3])?
A: 0

Q: What about the “Crabgrass plant response rating” value (crabgrass; [4]) of the same compound?
A: 0

Q: And the “Crabgrass plant response rating” value (crabgrass; [5])?
A: 0

Q: What about the “Crabgrass plant response rating” value (crabgrass; [6]) of the same compound?
A: 0

Q: And the “Plant response rating (0 to 10; 0 is no effect, 10 is complete control), Crabgrass” value (crabgrass; Rate 250 g/ha, Postemergence)?
A: 0

Q: And the “Crabgrass plant response rating” value (crabgrass; [7])?
A: 0

Q: What about the “Giant foxtail plant response rating” value (giant foxtail; [1]) of the same compound?
A: 0

Q: What about the “Giant foxtail plant response rating” value (giant foxtail; [2]) of the same compound?
A: 0

Q: And the “Plant response rating, Giant foxtail” value (giant foxtail; [3])?
A: 0

Q: What about the “Giant foxtail plant response rating” value (giant foxtail; [4]) of the same compound?
A: 0

Q: And the “Giant foxtail plant response rating” value (giant foxtail; [5])?
A: 0

Q: And the “Giant foxtail plant response rating” value (giant foxtail; [6])?
A: 0

Q: What about the “Plant response rating (0 to 10; 0 is no effect, 10 is complete control), Giant foxtail” value (giant foxtail; Rate 250 g/ha, Postemergence) of the same compound?
A: 0

Q: And the “Giant foxtail plant response rating” value (giant foxtail; [7])?
A: 0

Q: What about the “Morningglory plant response rating” value (morningglory; [1]) of the same compound?
A: 0

Q: And the “Morningglory plant response rating” value (morningglory; [2])?
A: 0

Q: And the “Plant response rating, Morningglory” value (morningglory; [3])?
A: 0

Q: What about the “Morningglory plant response rating” value (morningglory; [4]) of the same compound?
A: 0

Q: And the “Morningglory plant response rating” value (morningglory; [5])?
A: 0

Q: And the “Morningglory plant response rating” value (morningglory; [6])?
A: 0

Q: And the “Plant response rating (0 to 10; 0 is no effect, 10 is complete control), Morningglory” value (morningglory; Rate 250 g/ha, Postemergence)?
A: 0

Q: And the “Morningglory plant response rating” value (morningglory; [7])?
A: 0

Q: What about the “Redroot pigweed plant response rating” value (pigweed; [1]) of the same compound?
A: 0

Q: And the “Redroot pigweed plant response rating” value (pigweed; [2])?
A: 0

Q: What about the “Plant response rating, Redroot pigweed” value (pigweed; [3]) of the same compound?
A: 0

Q: What about the “Redroot pigweed plant response rating” value (pigweed; [4]) of the same compound?
A: 0

Q: What about the “Redroot pigweed plant response rating” value (pigweed; [5]) of the same compound?
A: 0

Q: And the “Redroot pigweed plant response rating” value (pigweed; [6])?
A: 0

Q: And the “Plant response rating (0 to 10; 0 is no effect, 10 is complete control), Redroot pigweed” value (pigweed; Rate 250 g/ha, Postemergence)?
A: 0

Q: What about the “Redroot pigweed plant response rating” value (pigweed; [7]) of the same compound?
A: 0

Q: What about the “Soybean plant response rating” value (soybean; [1]) of the same compound?
A: 0

Q: What about the “Soybean plant response rating” value (soybean; [2]) of the same compound?
A: 0

Q: And the “Plant response rating, Soybean” value (soybean; [3])?
A: 0

Q: And the “Soybean plant response rating” value (soybean; [4])?
A: 0

Q: And the “Soybean plant response rating” value (soybean; [5])?
A: 0

Q: What about the “Soybean plant response rating” value (soybean; [6]) of the same compound?
A: 0

Q: What about the “Plant response rating (0 to 10; 0 is no effect, 10 is complete control), Soybean” value (soybean; Rate 250 g/ha, Postemergence) of the same compound?
A: 1

Q: And the “Soybean plant response rating” value (soybean; [7])?
A: 2

Q: What about the “Sugarbeets plant response rating” value (sugar beet; [1]) of the same compound?
A: 0

Q: What about the “Sugarbeets plant response rating” value (sugar beet; [2]) of the same compound?
A: 0

Q: And the “Plant response rating, Sugarbeets” value (sugar beet; [3])?
A: 0

Q: What about the “Sugarbeets plant response rating” value (sugar beet; [4]) of the same compound?
A: 0

Q: What about the “Sugarbeets plant response rating” value (sugar beet; [5]) of the same compound?
A: 0

Q: And the “Sugarbeets plant response rating” value (sugar beet; [6])?
A: 0

Q: And the “Plant response rating (0 to 10; 0 is no effect, 10 is complete control), Sugarbeets” value (sugar beet; Rate 250 g/ha, Postemergence)?
A: 0

Q: What about the “Sugarbeets plant response rating” value (sugar beet; [7]) of the same compound?
A: 0

Q: What about the “Wild oats plant response rating” value (wild oat; [1]) of the same compound?
A: 0

Q: And the “Wild oats plant response rating” value (wild oat; [2])?
A: 0

Q: And the “Plant response rating, Wild oats” value (wild oat; [3])?
A: 0

Q: What about the “Wild oats plant response rating” value (wild oat; [4]) of the same compound?
A: 0

Q: And the “Wild oats plant response rating” value (wild oat; [5])?
A: 0

Q: And the “Wild oats plant response rating” value (wild oat; [6])?
A: 0

Q: What about the “Plant response rating (0 to 10; 0 is no effect, 10 is complete control), Wild oats” value (wild oat; Rate 250 g/ha, Postemergence) of the same compound?
A: 0

Q: And the “Wild oats plant response rating” value (wild oat; [7])?
A: 0

Q: What about the “Nutsedge plant response rating” value (purple nutsedge; [1]) of the same compound?
A: 0

Q: And the “Nutsedge plant response rating” value (purple nutsedge; [2])?
A: 0

Q: What about the “Plant response rating, Nutsedge” value (purple nutsedge; [3]) of the same compound?
A: 0

Q: What about the “Nutsedge plant response rating” value (purple nutsedge; [4]) of the same compound?
A: 0

Q: What about the “Nutsedge plant response rating” value (purple nutsedge; [5]) of the same compound?
A: 0

Q: And the “Nutsedge plant response rating” value (purple nutsedge; [6])?
A: 0

Q: And the “Plant response rating (0 to 10; 0 is no effect, 10 is complete control), Nutsedge” value (purple nutsedge; Rate 250 g/ha, Postemergence)?
A: 0

Q: What about the “Nutsedge plant response rating” value (purple nutsedge; [7]) of the same compound?
A: 0

Q: What about the “Rice plant response rating” value (rice; [8]) of the same compound?
A: 0

Q: What about the “Rice plant response rating” value (rice; [9]) of the same compound?
A: 0

Q: What about the “Rice plant response rating” value (rice; [10]) of the same compound?
A: 0

Q: What about the “Rice plant response rating” value (rice; [11]) of the same compound?
A: 0

Q: And the “S. Flatsedge plant response rating” value (smallflower flatsedge; [8])?
A: 0

Q: And the “S. Flatsedge plant response rating” value (smallflower flatsedge; [9])?
A: 0

Q: What about the “S. Flatsedge plant response rating” value (smallflower flatsedge; [10]) of the same compound?
A: 0

Q: And the “S. Flatsedge plant response rating” value (smallflower flatsedge; [11])?
A: 0

Q: And the “Ducksalad plant response rating” value (duck salad; [8])?
A: 0

Q: What about the “Ducksalad plant response rating” value (duck salad; [9]) of the same compound?
A: 0

Q: What about the “Ducksalad plant response rating” value (duck salad; [10]) of the same compound?
A: 0

Q: What about the “Ducksalad plant response rating” value (duck salad; [11]) of the same compound?
A: 0

Source: US6737383B1, “Herbicidal oxadiazolidines” (priority 1999, dated 2004)
